Assay results from patent US20160280743A1, “BACTERIAL MUTANTS AND METHODS OF USE” (priority 2015, published 2016).
In brackets after ≈: the same amount, converted by molar mass. Like-named read-outs stand apart in the source and are kept apart here.

Legend:
P. aeruginosa PAO1 = assay: microbe, parasite or virus in culture; settings: Pseudomonas aeruginosa, PAO1, 16 h, read-out: MIC PAO1 —
Experimental: (§1) Susceptibilities of E. coli and P. aeruginosa cells to different classes of antibiotics were determined by two-fold broth dilution method [1] with following modifications. Cells were grown in Luria-Bertani (LB) broth (tryptone 10 g/L, yeast extract 5 g/L and NaCl 5 g/L) with appropriate selection markers as needed, at 37° C. with shaking at 200 rpm. When needed, at OD600˜0.3, either L-arabinose (final concentration 0.1%) or IPTG (final concentration 0.1 mM) were added to induce the expression of the pore and cells were further incubated until OD600 reached 1.0. MICs of various antimicrobial agents were measured in 96-well micro-titer plates. For this purpose, exponentially growing cells were inoculated at a density of 10^5 cells/ml into wells containing LB medium in the presence of two-fold increasing concentrations of drugs under investigation at constant inducer concentration of 0.1% arabinose for E. coli or 0.1 mM IPTG for P. aeruginosa strains. Cell growth was determined visually or using Spark 10M microplate reader (Tecan) after incubation of the micro-titer plates at 37° C. for 16 h.
(§2) For this purpose, induced cells were dispensed into 96-well microplates with LB medium containing two-fold dilutions of an antibiotic of interest and a respective concentration of an inducer.

[1] = system: E. coli WT-Pore (GKCW101, FhuAΔC/Δ4L pore); assay: microbe, parasite or virus in culture; settings: Escherichia coli
Experimental: as §1, §2

[2] = system: P. aeruginosa PAO1Δ3 (Δ3); settings: for MIC Δ3 —: P. aeruginosa Δ3 without pore, 0.1 mM IPTG, LB, 37° C., 16 h
Experimental: as §1, §2

[3] = system: E. coli WT, WT-Pore, ΔTolC, ΔTolC-Pore; assay type: cell-based, Escherichia coli; settings: for Fold MIC change, Efflux, WT-Pore/ΔTolC-Pore / Fold MIC change, Efflux, WT/ΔTolC / Fold MIC change, OM barrier, WT/WT-Pore / Fold MIC change, OM barrier, ΔTolC/ΔTolC-Pore: E. coli
[4] = system: P. aeruginosa Δ3-Pore (GKCW116, FhuAΔC/Δ4L pore); assay: MIC, two-fold broth dilution, P. aeruginosa Δ3-Pore; settings: for MIC Δ3 Pore: P. aeruginosa Δ3-Pore, 0.1 mM IPTG, LB, 37° C., 16 h
Experimental: as §1, §2

E. coli BW 25113 (WT) = assay: microbe, parasite or virus in culture; settings: Escherichia coli
Experimental: as §1, §2

[5] = system: E. coli ΔTolC-Pore (GKCW103, FhuAΔC/Δ4L pore); settings: 0.1% arabinose, LB, 37° C., 16 h
Experimental: as §1, §2

[6] = system: P. aeruginosa PAO1, PAO1-Pore, Δ3, Δ3-Pore; assay: Fold MIC change between P. aeruginosa strains (OM barrier, efflux); assay type: cell-based, Pseudomonas aeruginosa; settings: for Fold MIC change, Efflux, PAO1-Pore/Δ3-Pore / Fold MIC change, Efflux, PAO1/Δ3 / Fold MIC change, OM barrier, PAO1/PAO1-Pore / Fold MIC change, OM barrier, Δ3/Δ3-Pore: P. aeruginosa
E. coli GD102 (ΔTolC) = settings: for MIC GD102 (ΔTolC) —: E. coli ΔTolC without pore, 0.1% arabinose, LB, 37° C., 16 h
Experimental: as §1, §2

[7] = system: P. aeruginosa PAO1-Pore (GKCW115, FhuAΔC/Δ4L pore); assay: MIC, two-fold broth dilution, P. aeruginosa PAO1-Pore; settings: Pseudomonas aeruginosa
Experimental: as §1, §2

[8] = 16 h, read-out: MIC BW 25113 (WT) Pore
[9] = 16 h, read-out: MIC BW 25113 (WT) —

SMILES | MIC (P. aeruginosa PAO1) | MIC [1, 8] | MIC Δ3 — [2] | Fold MIC change, Efflux, WT-Pore/ΔTolC-Pore [3] | Fold MIC change, Efflux, WT/ΔTolC [3] | Fold MIC change, OM barrier, WT/WT-Pore [3] | Fold MIC change, OM barrier, ΔTolC/ΔTolC-Pore [3] | MIC Δ3 Pore [4] | MIC (E. coli BW 25113 (WT); [9]) | MIC GD102 (ΔTolC) Pore [5] | Fold MIC change, Efflux, PAO1-Pore/Δ3-Pore [6] | Fold MIC change, Efflux, PAO1/Δ3 [6] | Fold MIC change, OM barrier, PAO1/PAO1-Pore [6] | Fold MIC change, OM barrier, Δ3/Δ3-Pore [6] | MIC GD102 (ΔTolC) — (E. coli GD102 (ΔTolC)) | other results
NCC[C@H](O)C(=O)N[C@@H]1C[C@H](N)[C@@H](O[C@H]2O[C@H](CN)[C@@H](O)[C@H](O)[C@H]2O)[C@H](O)[C@H]1O[C@H]1O[C@H](CO)[C@@H](O)[C@H](N)[C@H]1O [Amikacin] | 1 µg/mL (≈ 1.71 µM) | 2 µg/mL | 1 µg/mL (≈ 1.71 µM) | 1 fold | 1 fold | 1 fold | 1 fold | 1 µg/mL (≈ 1.71 µM) | 2 µg/mL | 2 µg/mL (≈ 3.42 µM) | 2 fold | 1 fold | 0.5 fold | 1 fold | 2 µg/mL (≈ 3.42 µM) | 
CC1(C)S[C@@H]2[C@H](NC(=O)[C@H](N)c3ccccc3)C(=O)N2[C@H]1C(=O)O [Ampicillin] |  | 2 µg/mL |  |  |  |  |  |  | 16 µg/mL | 0.5 µg/mL (≈ 1.43 µM) |  |  |  |  | 8 µg/mL (≈ 22.9 µM) | 
CC1(C)S[C@@H]2[C@H](NC(=O)C(C(=O)O)c3ccccc3)C(=O)N2[C@H]1C(=O)O (stereo partly shown) [Carbenicillin] | 32 µg/mL (≈ 84.6 µM) | 0.5 µg/mL | 0.5 µg/mL (≈ 1.32 µM) | 1 fold | 4 fold | 8 fold | 2 fold | 0.063 µg/mL (≈ 0.166 µM) | 4 µg/mL | 0.5 µg/mL (≈ 1.32 µM) | 32 fold | 64 fold | 16 fold | 8 fold | 1 µg/mL (≈ 2.64 µM) | 
O=C(N[C@H](CO)[C@H](O)c1ccc([N+](=O)[O-])cc1)C(Cl)Cl [Chloramphenicol] | 8 µg/mL (≈ 24.8 µM) | 2 µg/mL | 1 µg/mL (≈ 3.09 µM) | 4 fold | 4 fold | 1 fold | 1 fold | 0.125 µg/mL (≈ 0.387 µM) | 2 µg/mL | 0.5 µg/mL (≈ 1.55 µM) | 16 fold | 8 fold | 4 fold | 8 fold | 0.5 µg/mL (≈ 1.55 µM) | 
Cc1onc(-c2ccccc2Cl)c1C(=O)N[C@@H]1C(=O)N2[C@@H]1SC(C)(C)[C@@H]2C(=O)O [Cloxacillin] | > 2050 µg/mL | 128 µg/mL | 128 µg/mL (≈ 294 µM) | 128 fold | 512 fold | 4 fold | 1 fold | 8 µg/mL (≈ 18.4 µM) | 512 µg/mL | 1 µg/mL (≈ 2.29 µM) | 64 fold | ≧8 fold | ≧4 fold | 16 fold | 1 µg/mL (≈ 2.29 µM) | 
CC[C@H]1OC(=O)[C@H](C)[C@@H](O[C@H]2C[C@@](C)(OC)[C@@H](O)[C@H](C)O2)[C@H](C)[C@@H](O[C@@H]2O[C@H](C)C[C@H](N(C)C)[C@H]2O)[C@](C)(O)C[C@@H](C)C(=O)[C@H](C)[C@@H](O)[C@]1(C)O [Erythromycin] |  | 4 µg/mL | 16 µg/mL (≈ 21.8 µM) |  |  |  |  |  | 64 µg/mL |  |  |  |  |  | 4 µg/mL (≈ 5.45 µM) | MIC ([7]; PAO1, read-out: MIC in P. aeruginosa PAO1-Pore cells): 1.4 µM; MIC ([1]; read-out: MIC in E. coli WT-Pore cells): 1.4 µM; MIC in P. aeruginosa Δ3 cells ([2]; FIG. 5): 21.8 µM (≈ 16 µg/mL); Additional decrease of MIC in permeabilized ΔTolC-Pore cells ([3]; FIG. 4A): 16 fold; Difference of MICs in E. coli WT and ΔTolC cells ([3]; FIG. 4A): 16 fold; Reduction of MIC by permeabilization of the outer membrane in WT-Pore E. coli ([3]; FIG. 4A): 64 fold; Total potentiation (WT to ΔTolC-Pore) ([3]; FIG. 4A): 512 fold; MIC in P. aeruginosa Δ3-Pore cells ([4]; induced, plateau with increasing IPTG (FIG. 5)): 0.085 µM (≈ 0.0624 µg/mL); MIC (E. coli BW 25113 (WT); read-out: MIC in E. coli WT cells): 87 µM; Change of MIC on inactivation of the three major efflux pumps (PAO1 vs Δ3) [6]: 8 fold; MIC in E. coli ΔTolC cells (E. coli GD102 (ΔTolC); unchanged in the range of 0.001-0.5% arabinose (FIG. 4A)): 5.5 µM (≈ 4.04 µg/mL)
C[C@H]1COc2c(N3CCN(C)CC3)c(F)cc3c(=O)c(C(=O)O)cn1c23 [Levofloxacin] | 0.125 µg/mL (≈ 0.346 µM) | 0.016 µg/mL |  |  |  |  |  |  |  | 0.004 µg/mL (≈ 0.0111 µM) |  |  |  |  | 0.004 µg/mL (≈ 0.0111 µM) | 
CCC[C@@H]1C[C@@H](C(=O)N[C@@H]([C@H]2O[C@H](SC)[C@H](O)[C@@H](O)[C@H]2O)[C@@H](C)O)N(C)C1 [Lincomycin] |  | 512 µg/mL |  | 8 fold | 8 fold | 1 fold | 1 fold |  | 512 µg/mL | 64 µg/mL (≈ 157 µM) |  |  |  |  | 64 µg/mL (≈ 157 µM) | 
CCn1cc(C(=O)O)c(=O)c2ccc(C)nc21 [Nalidixic acid] | 64 µg/mL (≈ 276 µM) | 8 µg/mL | 8 µg/mL (≈ 34.4 µM) | 8 fold | 8 fold | 1 fold | 1 fold | 2 µg/mL (≈ 8.61 µM) | 8 µg/mL | 1 µg/mL (≈ 4.31 µM) | 16 fold | 8 fold | 2 fold | 4 fold | 1 µg/mL (≈ 4.31 µM) | 
CO[C@@H]1[C@@H](OC(N)=O)[C@@H](O)[C@H](Oc2ccc3c(O)c(NC(=O)c4ccc(O)c(CC=C(C)C)c4)c(=O)oc3c2C)OC1(C)C [Novobiocin] | 512 µg/mL (≈ 836 µM) | 32 µg/mL | 32 µg/mL (≈ 52.2 µM) | 256 fold | 256 fold | 4 fold | 4 fold | 1 µg/mL (≈ 1.63 µM) | 128 µg/mL | 0.125 µg/mL (≈ 0.204 µM) | 64 fold | 16 fold | 8 fold | 32 fold | 0.5 µg/mL (≈ 0.816 µM) | 
Nc1ccc2cc3ccc(N)cc3nc2c1 [Proflavine] |  | 32 µg/mL |  | 4 fold | 4 fold | 1 fold | 1 fold |  | 32 µg/mL | 8 µg/mL (≈ 38.2 µM) |  |  |  |  | 8 µg/mL (≈ 38.2 µM) | 
CO[C@H]1/C=C/O[C@@]2(C)Oc3c(C)c(O)c4c(O)c(c(/C=N/N5CCN(C)CC5)c(O)c4c3C2=O)NC(=O)/C(C)=C\C=C\[C@H](C)[C@H](O)[C@@H](C)[C@@H](O)[C@@H](C)[C@H](OC(C)=O)[C@@H]1C [Rifampicin] | 16 µg/mL (≈ 19.4 µM) | 0.25 µg/mL | 16 µg/mL (≈ 19.4 µM) |  |  |  |  | 0.5 µg/mL (≈ 0.608 µM) | 4 µg/mL | 0.25 µg/mL (≈ 0.304 µM) |  |  |  |  | 4 µg/mL (≈ 4.86 µM) | MIC ([7]; PAO1, 16 h, read-out: MIC PAO1 Pore): 0.5 µg/mL
[H]/N=C(/N)N[C@H]1[C@H](O)[C@@H](O)[C@H](O[C@@H]2O[C@@H](C)[C@](O)(C=O)[C@H]2O[C@@H]2O[C@@H](CO)[C@H](O)[C@@H](O)[C@@H]2NC)[C@@H](N/C(N)=N\[H])[C@@H]1O [Streptomycin] |  | 2 µg/mL |  | 1 fold | 0.5 fold | 1 fold | 2 fold |  | 2 µg/mL | 2 µg/mL (≈ 3.44 µM) |  |  |  |  | 4 µg/mL (≈ 6.88 µM) | 
CN(C)[C@@H]1C(O)=C(C(N)=O)C(=O)[C@@]2(O)C(O)=C3C(=O)c4c(O)cccc4[C@@](C)(O)[C@H]3C[C@@H]12 [Tetracycline] | 4 µg/mL (≈ 9 µM) | 0.25 µg/mL | 2 µg/mL (≈ 4.5 µM) | 2 fold | 4 fold | 2 fold | 1 fold | 0.031 µg/mL (≈ 0.0698 µM) | 0.5 µg/mL | 0.125 µg/mL (≈ 0.281 µM) | 16 fold | 2 fold | 8 fold | 64 fold | 0.125 µg/mL (≈ 0.281 µM) | 
